Laboratory results from patent US20070167526A1, “Topical mecamylamine formulations for ocular administration and uses thereof” (priority 2005, published 2007).
Counter-ions that a name gives are not always drawn.

Assays:
[1] = in vivo; conditions: rabbit, in vivo
Description: As used herein, the term “topically administered to a rabbit eye,” and cognates thereof, refers to the administration of a particular mecamylamine formulation, including formulations of pharmaceutically acceptable salts of mecamylamine, by applying 100 μL of the mecamylamine formulation to the cornea of each eye (2 drops of 50 μL each), wherein at the time of application the bottom eyelid is separated from the surface of the eye to make a pocket to ensure the entire dose is retained in contact with the eye. When the concentration of mecamylamine in plasma and in the retinal/choroidal tissue is to be measured in connection with the calculation of the ratio of the mecamylamine concentration in the retina/choroid versus the concentration of mecamylamine in plasma, the concentration of each is determined 1 hour after application of the formulation. The amount of mecamylamine present in plasma and the retina/choroid is determined by LC/MS/MS using internal standards of dextromethorphan and diphenhydramine and a standard of known concentration of mecamylamine. An exemplary method of administration of the topical formulation of mecamylamine is provided in Example 5. An exemplary LC/MS/MS method for determining the ratios described herein is given in detail in Example 6. When the mean maximum concentration of mecamylamine in plasma is to be determined, the concentration is again determined as described above and in Example 6. The term “mean maximum concentration of mecamylamine,” and its cognates, as used herein refers to the mean maximum concentration of mecamylamine measured in plasma when monitored over a 6 hour time period after administration of the formulation. When the mean total concentration of mecamylamine in plasma is to be determined, the concentration is again determined as described above and in Example 6. The term “total concentration of mecamylamine in plasma measured as the area under the curve,” (AUC) and cognates thereof, refers to summation of the areas under plot of the drug plasma versus time using a simple trapezoidal method with drug plasma time points taken to include 1, 3 and 6 hours after topical administration. Determination of AUC for corneal tissue, retinal/choroid tissue and aqueous humor is determined similarly. When the concentration of mecamylamine in plasma and in the corneal tissue is to be measured in connection with the calculation of the ratio of the mecamylamine concentration in the cornea (or aqueous humor) versus the concentration of mecamylamine in plasma, the concentration of each is determined 1 hour after application of 50 μl of the formulation. The amount of mecamylamine present in plasma and the cornea (or aqueous humor) is determined by LC/MS/MS using internal standards of dextromethorphan and diphenhydramine and a standard of known concentration of mecamylamine. An exemplary method of administration of the topical formulation of mecamylamine is provided in Example 5. An exemplary LC/MS/MS method for determining the ratios described herein is given in detail in Example 6.
A single dose of a polymer-free solution, gellan gum formulation and hypromellose formulation containing 3% mecamylamine hydrochloride, was instilled in the eyes of rabbits (Dutch-belted male rabbits (Convance, Denver, Pa.) minimum age 2 months and with weights of 1.6 to 1.8 kg). Two animals were euthanized 30 minutes, 1 hour or 3 hours after dosing.
Sample of blood and ocular tissue (obtained as described in previous examples) were analyzed for mecamylamine concentration using an LC MS/MS method up to 3 hours after dosing.
The area-under-the-curve (AUC) was calculated using a trapezoidal rule on a population pharmacokinetic basis (see Table 9).

[2] = system: eyes of New Zealand White rabbits; assay: Pupil diameter, pupillary response and mortality observations after topical ocular instillation in rabbits (Example 10); conditions: rabbit, in vivo
Description: The objective of this study was to evaluate the ocular pharmacokinetics of a 2% Mecamylamine in a GELRITE solution up to 6 hours following topical instillation into the eyes of New Zealand White rabbits. Nine New Zealand White female rabbits of minimum age of 9 weeks and weight 2-3 kg were obtained from The Rabbit Source (Ramona, Calif.) were used in the study.
On day 1, 2 drops of 50 μL of mecamylamine or vehicle were administered topically into the appropriate eye(s) of each animal as described in Table 13. The time of each dose administration was recorded.

[3] = Ocular bioavailability following intravenous administration (Example 2); assay type: in vivo, New Zealand White rabbit; conditions: rabbit
From the text: This study was designed to model the ocular bioavailability of mecamylamine when administered systemically. Rabbit eyes are the preferred model for in vivo modeling of ocular drugs, however, the rabbit is not the subject of choice for modeling oral bioavailability. However, systemic administration does emulate orally administered mecamylamine to a reasonable approximation since mecamylamine has rapid absorption and high oral bioavailability. Therefore, intravenous injection was used to model ocular bioavailability of mecamylamine administered systemically, in order to determine the deposition of mecamylamine to the plasma, vitreous and posterior tissues (retina/choroid) of the eye from the blood.
The study comprised 2 groups (each N=6, 12 rabbits total) of male NZW (New Zealand White) rabbits weighing approximately 2.5-3 kg and obtained from Kralek Farms (Turlock, Calif.). Mecamylamine solution, prepared as described in Example 1, at a dose of 15 mg/kg was delivered via i.v. infusion as either a short infusion (1 hr) or slow infusion (6 hr) in rabbits sedated by ketamine/xylazine, with the slow infusion intended to model controlled systemic release of the mecamylamine.
For both groups, samples of the vitreous(≧0.1 ml) and plasma were withdrawn at 6 time points: pre-dose, 30 min, 1, 2, 4, and 6 hr. At 6 hours, all animals were sacrificed and vitreous and retinal tissues were collected. The total amount of mecamylamine administered during each infusion was the same, based on the weight of the individual rabbit.
The concentrations of mecamylamine present in the various samples were analyzed as described in Example 6, below.

[4] = system: endothelial nAChRs; conditions: in vitro; endothelial cells; cited from earlier work

In the case of HPMC, the “Aqueous Humor AUC” value [1] is reported as 7,355 ng/mL*hr, the Cornea AUC [1] is reported as 114000 ng·h/g and the “Plasma AUC” value [1] is reported as 61 ng·h/mL. The “Ratio Aqu H:plasma (AUC)” value [1] was 120, the “Ratio Cornea:Plasma (AUC)” value [1] was 1,868:1 and the “Ratio Retina/Choroid:Plasma (AUC)” value [1] was 291:1. For the same compound, the Retina/Choroid AUC [1] was 17800 ng·h/g, the “Mecamylamine AUC, Anterior sclera” value ([1]; topical or ocular) was 32790 ng·h/g and the “Mecamylamine AUC, Aqueous humor” value ([1]; topical or ocular) was 7355 ng·h/mL. For the same compound, the “Mecamylamine AUC, Conjunctiva” value ([1]; topical or ocular) was 114398 ng·h/g, the “Mecamylamine AUC, Cornea” value ([1]; topical or ocular) was 113938 ng·h/g and the “Mecamylamine AUC, Extraocular muscle” value ([1]; topical or ocular) was 31236 ng·h/g. The “Mecamylamine AUC, Iris-ciliary body” value ([1]; topical or ocular) was 114813 ng·h/g, the “Mecamylamine AUC, Lens” value ([1]; topical or ocular) was 1064 ng·h/g and the “Mecamylamine AUC, Optic Nerve” value ([1]; topical or ocular) was 11515 ng·h/g. For the same compound, the “Mecamylamine AUC, Posterior sclera” value ([1]; topical or ocular) was 23638 ng·h/g, the “Mecamylamine AUC, Retina/Choroid” value ([1]; topical or ocular) was 17804 ng·h/g and the “Mecamylamine AUC, Vitreous humor” value ([1]; topical or ocular) was 335 ng·h/mL.

For `CNC1(C)C2CCC(C2)C1(C)C` (stereo not shown) [mecamylamine hydrochloride], the “pupil diameter and pupil diameter response to light (mydriasis)” value [2] was “did not result in significant changes in pupil diameter or pupil diameter response to light”, the “mean maximum concentration of mecamylamine in plasma” value ([3]; long i.v. infusion (FIG. 2)) was “greater than 500 ng/mL” and the “mean maximum concentration of mecamylamine in plasma” value ([3]; short i.v. administration (FIG. 1)) was greater than 1500 ng/mL.

For `CN1CCCC1c1cccnc1` (stereo not shown) [nicotine], the “concentrations at which the maximal effect of nicotine occurs” value [4] is given as 10 to 100 nM.
